The source of these data is ChEMBL document CHEMBL1126027, “Oxidation chemistry and biochemistry of the central mammalian alkaloid 1-methyl-6-hydroxy-1,2,3,4-tetrahydro-beta-carboline” (1992).

Molecules are shown by their SMILES.

What all share (assay type): functional
The species named for assay [1] is Mus musculus. Briefly: Effect on whole mouse brain DOPAC level after 1 day (control = 100+/-6).
For assay [2], the species on record is Mus musculus. Nature of the assay: Effect on whole mouse brain 5-hydroxyindoleacetic acid level after 1 week (control = 100+/-10).
For assay [3], the species on record is Mus musculus. Briefly: Effect on whole mouse brain homovanillic acid level after 1 day (control = 100+/-3).
Assay [4] is filed under the species Mus musculus. Briefly: Effect on whole mouse brain 5-HT acid level after 1 day (control = 100+/-2).
For assay [5], the species on record is Mus musculus. Briefly: Effect on whole mouse brain 5-HT acid level after 3h (control = 100+/-6).
For assay [6], the species on record is Mus musculus. Briefly: Effect on whole mouse brain DOPAC level after 1 week (control = 100+/-9).
The species named for assay [7] is Mus musculus. Nature of the assay: Effect on whole mouse brain acetylcholine level after 1 week (control = 100+/-13).
Assay [8] is filed under the species Mus musculus. Nature of the assay: Effect on whole mouse brain acetylcholine level after 3h (control = 100+/-5).
The species entered for assay [9] is Mus musculus. Nature of the assay: Effect on whole mouse brain choline level after 1 week (control = 100+/-9).
For assay [10], the species on record is Mus musculus. Briefly: Effect on whole mouse brain 5-HT acid level after 1 week (control = 100+/-9).
For assay [11], the species on record is Mus musculus. Briefly: Effect on whole mouse brain dopamine level after 1 week (control = 100+/-10).
For assay [12], the species on record is Mus musculus. Nature of the assay: Effect on whole mouse brain 5-hydroxyindoleacetic acid level after 3h (control = 100+/-14).
The species entered for assay [13] is Mus musculus. Briefly: Effect on whole mouse brain norepinephrine level after 1 week (control = 100+/-10).
For assay [14], the species on record is Mus musculus. Briefly: Effect on whole mouse brain homovanillic acid level after 1 week (control = 100+/-5).
For assay [15], the species on record is Mus musculus. Briefly: Effect on whole mouse brain norepinephrine level after 3h (control = 100+/-8).
Assay [16] is filed under the species Mus musculus. Briefly: Effect on whole mouse brain choline level after 3h (control = 100+/-5).
For assay [17], the species on record is Mus musculus. Nature of the assay: Effect on whole mouse brain homovanillic acid level after 3h (control = 100+/-6).
The species named for assay [18] is Mus musculus. Nature of the assay: Effect on whole mouse brain 5-hydroxyindoleacetic acid level after 1 day (control = 100+/-5).
Assay [19] is filed under the species Mus musculus. Briefly: Effect on whole mouse brain dopamine level after 3h (control = 100+/-3).
The species named for assay [20] is Mus musculus. Nature of the assay: Effect on whole mouse brain acetylcholine level after 1 day (control = 100+/-5).
The species named for assay [21] is Mus musculus. Briefly: Effect on whole mouse brain choline level after 1 day (control = 100+/-9).
For assay [22], the species on record is Mus musculus. Nature of the assay: Effect on whole mouse brain DOPAC level after 3h (control = 100+/-11).
Assay [23] is filed under the species Mus musculus. Briefly: Effect on whole mouse brain norepinephrine level after 1 day (control = 100+/-3).
For assay [24], the species on record is Mus musculus. Briefly: Effect on whole mouse brain 5-hydroxyindoleacetic acid level after 1 day (control = 100+/-6).
Assay [25] is filed under the species Mus musculus. Briefly: Effect on whole mouse brain homovanillic acid level after 1 day (control = 100+/-4).
Assay [26] is filed under the species Mus musculus. Briefly: Effect on whole mouse brain 5-HT acid level after 1 day (control = 100+/-3).
The species entered for assay [27] is Mus musculus. Briefly: Effect on whole mouse brain norepinephrine level after 1 day (control = 100+/-5).
The species entered for assay [28] is Mus musculus. Nature of the assay: Effect on whole mouse brain acetylcholine level after 1 day (control = 100+/-8).
The species entered for assay [29] is Mus musculus. Nature of the assay: Effect on whole mouse brain dopamine level after 1 day (control = 100+/-3).
Assay [30] is filed under the species Mus musculus. Briefly: Effect on whole mouse brain choline level after 1 day (control = 100+/-1).
The species entered for assay [31] is Mus musculus. Nature of the assay: Effect on whole mouse brain DOPAC level after 1 day (control = 100+/-4).

With `CC1NCCc2c1[nH]c1ccc(O)c(-c3c(O)ccc4[nH]c5c(c34)CCNC5C)c21` (centres undefined), the Control in the assay listed under Mus musculus [1] was found to be 93%; in the assay listed under Mus musculus [2], 99%; in the assay filed under Mus musculus [3] it was 107%; in the assay filed under Mus musculus [4], 111%; in the assay filed under Mus musculus [5] it was 107%; in the assay listed under Mus musculus [6], 96%. For the same compound, the Control in the assay listed under Mus musculus [7] is reported as 94%; in the assay filed under Mus musculus [8] it was 98%; in the assay filed under Mus musculus [9] it was 107%; in the assay listed under Mus musculus [10], 103%; in the assay filed under Mus musculus [11], 98%; in the assay listed under Mus musculus [12], 86%. Moreover, the Control in the assay filed under Mus musculus [13] was determined as 111%; in the assay listed under Mus musculus [14], 100%; in the assay filed under Mus musculus [15], 93%; in the assay filed under Mus musculus [16], 83%; in the assay filed under Mus musculus [17], 90%; in the assay listed under Mus musculus [18] it was 135%. For the same compound, the Control is 98% in the assay listed under Mus musculus [19]; 78% in the assay filed under Mus musculus [20]; 97% in the assay listed under Mus musculus [21]; 81% in the assay listed under Mus musculus [22]; 105% in the assay listed under Mus musculus [23].

Turning to `CC1NCCc2c1[nH]c1ccc(O)c(-c3c(O)ccc4[nH]c5c(c34)CCNC5C)c21` (stereo in doubt; 5), the Control is given as 146% in the assay filed under Mus musculus [24]; 115% in the assay filed under Mus musculus [25]; 94% in the assay listed under Mus musculus [26]; 102% in the assay filed under Mus musculus [27]; 87% in the assay listed under Mus musculus [28]; 90% in the assay filed under Mus musculus [29]. The figures for the Control in the assay filed under Mus musculus [30] and in the assay filed under Mus musculus [31] were 77% and 97%, respectively.

`CC1NCCc2c1[nH]c1ccc(O)c(-c3c(O)ccc4[nH]c5c(c34)CCNC5C)c21` (stereo in doubt; 6): the Control was determined as 163% in the assay filed under Mus musculus [24]; 132% in the assay filed under Mus musculus [25]; 107% in the assay filed under Mus musculus [26]; 104% in the assay filed under Mus musculus [27]; 73% in the assay listed under Mus musculus [28]; 96% in the assay filed under Mus musculus [29]. Also, the Control in the assay filed under Mus musculus [30] was determined as 97%; in the assay listed under Mus musculus [31], 101%.
